From patent publication US8791158B2, “Methods of treating meibomian gland dysfunction” (GTX, Inc., priority 2010, dated 2014)
Marks after values point to notes of the source that are not given here.

Key:
[1] = test system: acute orchiectomized (ORX) rabbit model; test: Palmitate:stearate ratios in tears, Meibomian glands and harderian glands, Example 4; assay type: in vivo; settings: for Palmitate:stearate ratios in Meibomian glands / Palmitate:stearate ratios in harderian glands: ORX rabbits, topical 2.5 mg/kg once daily 14 d, mean
From the text: The goal of this study was to compare the effects of Compound 1 and Compound 2, two tissue selective SARMs with differing androgenic potential, in modulating tear composition in an acute orchiectomized (ORX) rabbit model.
Twenty New Zealand white rabbits weighing approximately 3 lbs were allowed to acclimate for two weeks before the start of the study Animals were weighed on day 0 of the study, randomized according to body weight and allotted to the following dose groups:
Surgeries for the study were staggered to limit the maximum number of surgeries per day to six. One animal from each group was entered into the study every day and either sham or orchiectomy was performed as described below Animals were premedicated with glycopyrrolate (0.02 mg/kg) and anesthesia was induced with a combination of ketamine (15 mg/kg): medetomidine (0.25 mg/kg). Anesthesia was maintained with isoflurane (1 liter/hr). ORX was performed using a scrotal incision. For the sham operated animals, the scrotal sac was incised and skin closed using tissue glue Animals were revived from anesthesia using atipamezole (1 mg/kg) SQ. Analgesia was provided with buprenorphine (0.05 mg/kg).
Immediately after the animals had recovered from anesthesia, they were dosed with the appropriate test articles as indicated above. Drug dosing was done once daily for 14 d. Blood samples were collected at 30, 60, 120, 240 and 1440 minutes after dose administration on day 11 for pharmacokinetic analyses. Plasma was separated for HPLC analysis of parent drug concentrations. Tears were collected using Schirmer tear strips (Alcon, Tex.) on day 0 before surgery and 24 hours after the last administration of drug (day 15). The tears were stored at −80° C. until shipment for analysis. Lipids were hydrolyzed, extracted from the Schirmer strips, derivatized, and subjected to GC-FID to evaluate the lipid composition. The samples were evaluated for the presence of 28 saturated and unsaturated fatty acids that included methyl caprate (C10:0), methyl laurate (C12:0), methyl 11-dodecenoate (C12:1), methyl myristate (C14:0), methyl myristoleate (C14:1), methyl palmitate (C16:0), methyl palmitoleate (C16:1), methyl stearate (C18:0), methyl oleate (C18:1), methyl vaccenate (C18:1), methyl linoleate (C18:2), methyl gamma linoleate (C18:3), methyl linoleate (C18:3), methyl arachidate (C20:0), methyl 11-eicosenoate (C20:1), methyl 11,14 eicosadinoate (C20:2), methyl 8,11,14 eicosatrienoate (C20:3), methyl eicosapentaenoate (C20:5), methyl behenate (C22:0), methyl erucate (C22:1), methyl 13,16 docosaenoate (C22:2), methyl docosatetraenoate (C22:4), methyl docosapentaenoate (C22:5), methyl docosahexaenoate (C22:6), methyl lignocerate (C24:0), and methyl nervonate (C24:1). Area under the curve for each individual peak was determined using the GC ChemStation software. To normalize for the tear content, the lipid composition was expressed as a ratio of the lipid that was most affected by castration (palmitate) to one which remained relatively constant (stearate).
At the end of the study, the animals were euthanatized. The left harderian and Meibomian glands were collected for lipid analysis and snap frozen using an ethanol:dry ice bath. Samples were stored at −80° C. until shipment for analysis. The right eyelids were embedded in OCT medium and shipped to Paragon Biosciences (Washington D.C.) for histology and Oil-red-O quantification of lipids. Images of three separate fields were taken from each eyelid at random and the amount of cells staining red in each field was scored using commercially available software. A scoring scheme was adopted with a scale of 0-4 to evaluate the staining intensities with 0=<1% cells stained, 1+ for 2-5% of cells stained, 2+=6-10% stain, 3+=11-20% staining, 4+ for >21% cells stained.

[2] = test system: acute, orchiectomized (ORX) rabbit model; test: Tear fatty acid composition (palmitate:stearate ratio) after Compound 2 or TP, Example 3; assay type: in vivo; settings: ORX rabbits; for Tear palmitate:stearate ratio after 4 week washout: then untreated 4 weeks
From the text: The goal of this study was to compare the effect of Compound 2 to testosterone propionate (TP) on tear composition in an acute, orchiectomized (ORX) rabbit model.
Fifteen New Zealand white rabbits weighing approximately 3 lbs were allowed to acclimate for 4 weeks before the start of the study. Animals were weighed on day 0 of the study, randomized according to body weight and allotted to the following dose groups:
Pre-dose tear and blood samples were collected. Animals from groups 2-5 were to premedicated with glycopyrrolate (0.02 mg/kg) and then anesthesia was induced with a combination of ketamine (15 mg/kg): medetomidine (0.25 mg/kg).
Anesthesia was maintained with isoflurane (1 liter/hr). Orchiectomy was performed using a scrotal incision. Animals were revived from anesthesia using atipamezole (1 mg/kg) SQ. Analgesia was provided with buprenorphine (0.05 mg/kg) Immediately after the animals had recovered from anesthesia, they received their first dose with the appropriate test articles as indicated above.
Drug dosing was done once daily for 14 days. Blood was collected at 60 minutes post administration of the last dose of drug and plasma separated for HPLC analysis of parent drug concentrations.
Tears were collected using Schirmer tear strips (Alcon, Tex.) on day 0 before surgery, 24 hours after the last administration of drug (day 15) and also at 42 days (6 weeks after start of study). The tears were stored at −80° C. prior to lipid analysis.
Lipids were hydrolyzed, extracted from the Schirmer strips, derivatized, and subjected to gas chromatography with flame ionization detector (GCFID) to evaluate the lipid composition.
The samples were evaluated for the presence of 28 saturated and unsaturated fatty acids that included methyl caprate (C10:0), methyl laurate (C12:0), methyl 11-dodecenoate (C12:1), methyl myristate (C14:0), methyl myristoleate (C14:1), methyl palmitate (C16:0), methyl palmitoleate (C16:1), methyl stearate (C18:0), methyl oleate (C18:1), methyl vaccenate (C18:1), methyl linoleate (C18:2), methyl gamma linoleate (C18:3), methyl linoleate (C18:3), methyl arachidate (C20:0), methyl 11-eicosenoate (C20:1), methyl 11,14 eicosadinoate (C20:2), methyl 8,11,14 eicosatrienoate (C20:3), methyl eicosapentaenoate (C20:5), methyl behenate (C22:0), methyl erucate (C22:1), methyl 13,16 docosaenoate (C22:2), methyl docosatetraenoate (C22:4), methyl docosapentaenoate (C22:5), methyl docosahexaenoate (C22:6), methyl lignocerate (C24:0), and methyl nervonate (C24:1).
The area under the curve for each individual peak was determined using GC ChemStation software. […] These samples were then washed with a saturated solution of NaCl+0.1% formic acid (FA). […] These samples were all in the predose tear group. Two more samples from the predose group and one sample from Vehicle Intact treated group had small but clear and well to separated peaks that were included in the analysis.
To normalize for the tear content, the lipid composition was expressed as a ratio of the lipid that was most affected by castration (palmitate) to one which remained relatively constant (stearate). Blood was also collected on day 15 (24 hours after last drug administration) of the study, plasma separated and analyzed for Compound 2.
The last dose of drug or vehicle was administered on day 15 of the study Animals were left untreated for 4 weeks (washout period) before tear samples were collected again on Schirmer tear strips and analyzed as indicated above.

Q: What does the source list for `C[C@](O)(COc1ccc(C#N)cc1)C(=O)Nc1ccc(C#N)c(C(F)(F)F)c1` [Compound 1, (S)—N-(4-Cyano-3-(trifluoromethyl)phenyl)-3-(4-cyanophenoxy)-2-hydroxy-2-methylpropanamide]?
A: Palmitate:stearate ratios in Meibomian glands [1]: 4.07^b; Palmitate:stearate ratios in harderian glands [1]: 5.1; Change of palmitate:stearate ratio in Meibomian glands ([1]; topical 2.5 mg/kg): two fold increase; Change of palmitate:stearate ratio in harderian glands compared to control animals ([1]; topical 2.5 mg/kg): no change

Q: With `C[C@](O)(COc1ccc(C#N)c(F)c1)C(=O)Nc1ccc(C#N)c(C(F)(F)F)c1` [Compound 2, (S)—N-(4-cyano-3-(trifluoromethyl)phenyl)-3-(4-cyano-3-fluorophenoxy)-2-hydroxy-2-methylpropanamide] as the molecule, how does the “Increase of tear palmitate:stearate ratio relative to intact animals” value ([2]; 2.5 mg/kg, 14 days) read?
A: Its value is “two times that of intact animals”.

Q: What about the “Tear palmitate:stearate ratio after 4 week washout” value ([2]; SQ 2.5 mg/kg for two weeks) of the same molecule?
A: The value was 1.47±0.172.

Q: What about the “Tear palmitate:stearate ratio after 4 week washout” value ([2]; topical 2.5 mg/kg for two weeks) of the same molecule?
A: Its value is 1.66±0.426.

Q: And the “Palmitate:stearate ratios in Meibomian glands” value [1]?
A: The value was 2.82.

Q: What about the “Palmitate:stearate ratios in harderian glands” value [1] of the same molecule?
A: Its value is 7.76.

Q: And the “Change of palmitate:stearate ratio in Meibomian glands” value ([1]; topical 2.5 mg/kg)?
A: Its value is “mild increase”.

Q: What about the “Change of palmitate:stearate ratio in harderian glands compared to control animals” value ([1]; topical 2.5 mg/kg) of the same molecule?
A: Its value is “significant increase”.

Q: What about the “Increase of tear palmitate:stearate ratio over intact vehicle treated animals” value ([1]; topical 2.5 mg/kg) of the same molecule?
A: The value was roughly 1.5 fold.

Q: And the “Increase of tear palmitate:stearate ratio relative to ORX vehicle-treated animals” value ([1]; topical 2.5 mg/kg)?
A: The value was “approximately 2.5 times”.
